Patent publication US20230123334A1, “AMINO LIPID COMPOUND, PREPARATION METHOD THEREFOR, AND APPLICATION THEREOF” (SHENZHEN SHENXIN BIOTECHNOLOGY CO., LTD., priority 2020, published 2023)

Columns and labels:
HEK293 cells [1] = test: Preliminary screening as DNA vectors, GFP transfection of HEK293 cells; assay type: cell-based; details: HEK293 cells; lipid/DOPE liposome with 75 ng plasmid DNA (psin-EGFP-IRES-Puro); number of cells expressing GFP divided by total number of nuclei (Hoechst)
Outline: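 Lipid + DOPE liposomes (NaOAc, pH 5.6) complexed w/ 75 ng psin-EGFP-IRES-Puro, 30 min RT; added to 3-5×10^4 HEK293/well, 37° C. Hoechst 0.2 μg/mL at 20-24 h, imaged after further 20-24 h. Efficiency = GFP+ cells / total nuclei.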

HEK293 cells [2] = test: Preliminary screening as mRNA vectors, EGFP mRNA transfection of HEK293 cells; assay type: cell-based; details: HEK293 cells, 96-well plates, EGFP mRNA 50 ng per well; percentage of GFP fluorescent cells relative to total number of cells (Hoechst)
Outline: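 Each well of HEK293 cells received 50 ng of EGFP mRNA. Efficiency was expressed as percent GFP-expressing cells over Hoechst-defined total cell number.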

CCCCCCCCCCCCCCCCCCNc1nc(NCCCCCCCCC)nc(NCCCN2CCN(C)CC2)n1 [Compound N9N18D9]
Absolute DNA transfection efficiency in HEK293 cells (HEK293 cells [1]): 0.3% | Absolute mRNA transfection efficiency in HEK293 cells (HEK293 cells [2]): 3.1%

CCCCCCCCCCCCCCCCCCNc1nc(NCCCCCCCCC)nc(NCC2CCN(C)CC2)n1 [Compound N9N18D10]
Absolute DNA transfection efficiency in HEK293 cells (HEK293 cells [1]): 2.6% | Absolute mRNA transfection efficiency in HEK293 cells (HEK293 cells [2]): 1.9%

CCCCCCCCCCCNc1nc(NCCCCCCCCCCC)nc(NCCN(C)C)n1 [Compound N11N11D1]
Absolute DNA transfection efficiency in HEK293 cells (HEK293 cells [1]): 0.9% | Absolute mRNA transfection efficiency in HEK293 cells (HEK293 cells [2]): 4.3%

CCCCCCCCCCCNc1nc(NCCCCCCCCCCC)nc(NCCN2CCOCC2)n1 [Compound N11N11D2]
Absolute DNA transfection efficiency in HEK293 cells (HEK293 cells [1]): 0.0% | Absolute mRNA transfection efficiency in HEK293 cells (HEK293 cells [2]): 1.4%

CCCCCCCCCCCNc1nc(NCCCCCCCCCCC)nc(NCCN2CCCC2)n1 [Compound N11N11D3]
Absolute DNA transfection efficiency in HEK293 cells (HEK293 cells [1]): 1.8% | Absolute mRNA transfection efficiency in HEK293 cells (HEK293 cells [2]): 1.4%

CCCCCCCCCCCNc1nc(NCCCCCCCCCCC)nc(NCCN2CCCCC2)n1 [Compound N11N11D4]
Absolute DNA transfection efficiency in HEK293 cells (HEK293 cells [1]): 0.0% | Absolute mRNA transfection efficiency in HEK293 cells (HEK293 cells [2]): 4.1%

CCCCCCCCCCCNc1nc(NCCCCCCCCCCC)nc(NCCN2CCN(C)CC2)n1 [Compound N11N11D5]
Absolute DNA transfection efficiency in HEK293 cells (HEK293 cells [1]): 0.9% | Absolute mRNA transfection efficiency in HEK293 cells (HEK293 cells [2]): 0.4%

CCCCCCCCCCCNc1nc(NCCCCCCCCCCC)nc(NCCCN(C)C)n1 [Compound N11N11D6]
Absolute DNA transfection efficiency in HEK293 cells (HEK293 cells [1]): 0.7% | Absolute mRNA transfection efficiency in HEK293 cells (HEK293 cells [2]): 1.1%

CCCCCCCCCCCNc1nc(NCCCCCCCCCCC)nc(NCCN(CC)CC)n1 [Compound N11N11D7]
Absolute DNA transfection efficiency in HEK293 cells (HEK293 cells [1]): 0.6% | Absolute mRNA transfection efficiency in HEK293 cells (HEK293 cells [2]): 5.5%

CCCCCCCCCCCNc1nc(NCCCCCCCCCCC)nc(NCCCN2CCOCC2)n1 [Compound N11N11D8]
Absolute DNA transfection efficiency in HEK293 cells (HEK293 cells [1]): 0.0% | Absolute mRNA transfection efficiency in HEK293 cells (HEK293 cells [2]): 1.5%

CCCCCCCCCCCNc1nc(NCCCCCCCCCCC)nc(NCCCN2CCN(C)CC2)n1 [Compound N11N11D9]
Absolute DNA transfection efficiency in HEK293 cells (HEK293 cells [1]): 0.0% | Absolute mRNA transfection efficiency in HEK293 cells (HEK293 cells [2]): 0.3%

CCCCCCCCCCCNc1nc(NCCCCCCCCCCC)nc(NCC2CCN(C)CC2)n1 [Compound N11N11D10]
Absolute DNA transfection efficiency in HEK293 cells (HEK293 cells [1]): 0.5% | Absolute mRNA transfection efficiency in HEK293 cells (HEK293 cells [2]): 1.2%

CCCCCCCCCCCCNc1nc(NCCCCCCCCCCC)nc(NCCN(C)C)n1 [Compound N11N12D1]
Absolute DNA transfection efficiency in HEK293 cells (HEK293 cells [1]): 0.0% | Absolute mRNA transfection efficiency in HEK293 cells (HEK293 cells [2]): 0.3%

CCCCCCCCCCCCNc1nc(NCCCCCCCCCCC)nc(NCCN2CCOCC2)n1 [Compound N11N12D2]
Absolute DNA transfection efficiency in HEK293 cells (HEK293 cells [1]): 0.5% | Absolute mRNA transfection efficiency in HEK293 cells (HEK293 cells [2]): 0.5%

CCCCCCCCCCCCNc1nc(NCCCCCCCCCCC)nc(NCCN2CCCC2)n1 [Compound N11N12D3]
Absolute DNA transfection efficiency in HEK293 cells (HEK293 cells [1]): 1.9% | Absolute mRNA transfection efficiency in HEK293 cells (HEK293 cells [2]): 2.7%

CCCCCCCCCCCCNc1nc(NCCCCCCCCCCC)nc(NCCN2CCCCC2)n1 [Compound N11N12D4]
Absolute DNA transfection efficiency in HEK293 cells (HEK293 cells [1]): 0.0% | Absolute mRNA transfection efficiency in HEK293 cells (HEK293 cells [2]): 1.2%

CCCCCCCCCCCCNc1nc(NCCCCCCCCCCC)nc(NCCN2CCN(C)CC2)n1 [Compound N11N12D5]
Absolute DNA transfection efficiency in HEK293 cells (HEK293 cells [1]): 0.0% | Absolute mRNA transfection efficiency in HEK293 cells (HEK293 cells [2]): 8.0%

CCCCCCCCCCCCNc1nc(NCCCCCCCCCCC)nc(NCCCN(C)C)n1 [Compound N11N12D6]
Absolute DNA transfection efficiency in HEK293 cells (HEK293 cells [1]): 0.5% | Absolute mRNA transfection efficiency in HEK293 cells (HEK293 cells [2]): 8.1%

CCCCCCCCCCCCNc1nc(NCCCCCCCCCCC)nc(NCCN(CC)CC)n1 [Compound N11N12D7]
Absolute DNA transfection efficiency in HEK293 cells (HEK293 cells [1]): 0.0% | Absolute mRNA transfection efficiency in HEK293 cells (HEK293 cells [2]): 2.4%

CCCCCCCCCCCCNc1nc(NCCCCCCCCCCC)nc(NCCCN2CCOCC2)n1 [Compound N11N12D8]
Absolute DNA transfection efficiency in HEK293 cells (HEK293 cells [1]): 0.0% | Absolute mRNA transfection efficiency in HEK293 cells (HEK293 cells [2]): 2.8%

CCCCCCCCCCCCNc1nc(NCCCCCCCCCCC)nc(NCCCN2CCN(C)CC2)n1 [Compound N11N12D9]
Absolute DNA transfection efficiency in HEK293 cells (HEK293 cells [1]): 0.0% | Absolute mRNA transfection efficiency in HEK293 cells (HEK293 cells [2]): 0.3%

CCCCCCCCCCCCNc1nc(NCCCCCCCCCCC)nc(NCC2CCN(C)CC2)n1 [Compound N11N12D10]
Absolute DNA transfection efficiency in HEK293 cells (HEK293 cells [1]): 1.8% | Absolute mRNA transfection efficiency in HEK293 cells (HEK293 cells [2]): 0.4%

CCCCCCCCCCCCCNc1nc(NCCCCCCCCCCC)nc(NCCN(C)C)n1 [Compound N11N13D1]
Absolute DNA transfection efficiency in HEK293 cells (HEK293 cells [1]): 1.4% | Absolute mRNA transfection efficiency in HEK293 cells (HEK293 cells [2]): 5.9%

CCCCCCCCCCCCCNc1nc(NCCCCCCCCCCC)nc(NCCN2CCOCC2)n1 [Compound N11N13D2]
Absolute DNA transfection efficiency in HEK293 cells (HEK293 cells [1]): 0.0% | Absolute mRNA transfection efficiency in HEK293 cells (HEK293 cells [2]): 0.1%

CCCCCCCCCCCCCNc1nc(NCCCCCCCCCCC)nc(NCCN2CCCC2)n1 [Compound N11N13D3]
Absolute DNA transfection efficiency in HEK293 cells (HEK293 cells [1]): 0.0% | Absolute mRNA transfection efficiency in HEK293 cells (HEK293 cells [2]): 3.6%

CCCCCCCCCCCCCNc1nc(NCCCCCCCCCCC)nc(NCCN2CCCCC2)n1 [Compound N11N13D4]
Absolute DNA transfection efficiency in HEK293 cells (HEK293 cells [1]): 0.0% | Absolute mRNA transfection efficiency in HEK293 cells (HEK293 cells [2]): 0.9%

CCCCCCCCCCCCCNc1nc(NCCCCCCCCCCC)nc(NCCN2CCN(C)CC2)n1 [Compound N11N13D5]
Absolute DNA transfection efficiency in HEK293 cells (HEK293 cells [1]): 0.1% | Absolute mRNA transfection efficiency in HEK293 cells (HEK293 cells [2]): 0.2%

CCCCCCCCCCCCCNc1nc(NCCCCCCCCCCC)nc(NCCCN(C)C)n1 [Compound N11N13D6]
Absolute DNA transfection efficiency in HEK293 cells (HEK293 cells [1]): 0.8% | Absolute mRNA transfection efficiency in HEK293 cells (HEK293 cells [2]): 0.2%

CCCCCCCCCCCCCNc1nc(NCCCCCCCCCCC)nc(NCCN(CC)CC)n1 [Compound N11N13D7]
Absolute DNA transfection efficiency in HEK293 cells (HEK293 cells [1]): 0.5% | Absolute mRNA transfection efficiency in HEK293 cells (HEK293 cells [2]): 0.9%

CCCCCCCCCCCCCNc1nc(NCCCCCCCCCCC)nc(NCCCN2CCOCC2)n1 [Compound N11N13D8]
Absolute DNA transfection efficiency in HEK293 cells (HEK293 cells [1]): 0.0% | Absolute mRNA transfection efficiency in HEK293 cells (HEK293 cells [2]): 0.6%

CCCCCCCCCCCCCNc1nc(NCCCCCCCCCCC)nc(NCCCN2CCN(C)CC2)n1 [Compound N11N13D9]
Absolute DNA transfection efficiency in HEK293 cells (HEK293 cells [1]): 0.0% | Absolute mRNA transfection efficiency in HEK293 cells (HEK293 cells [2]): 7.1%

CCCCCCCCCCCCCNc1nc(NCCCCCCCCCCC)nc(NCC2CCN(C)CC2)n1 [Compound N11N13D10]
Absolute DNA transfection efficiency in HEK293 cells (HEK293 cells [1]): 0.0% | Absolute mRNA transfection efficiency in HEK293 cells (HEK293 cells [2]): 0.0%

CCCCCCCCCCCCCCCNc1nc(NCCCCCCCCCCC)nc(NCCN(C)C)n1 [Compound N11N15D1]
Absolute DNA transfection efficiency in HEK293 cells (HEK293 cells [1]): 1.3% | Absolute mRNA transfection efficiency in HEK293 cells (HEK293 cells [2]): 0.6%

CCCCCCCCCCCCCCCNc1nc(NCCCCCCCCCCC)nc(NCCN2CCOCC2)n1 [Compound N11N15D2]
Absolute DNA transfection efficiency in HEK293 cells (HEK293 cells [1]): 0.3% | Absolute mRNA transfection efficiency in HEK293 cells (HEK293 cells [2]): 0.7%

CCCCCCCCCCCCCCCNc1nc(NCCCCCCCCCCC)nc(NCCN2CCCC2)n1 [Compound N11N15D3]
Absolute DNA transfection efficiency in HEK293 cells (HEK293 cells [1]): 0.3% | Absolute mRNA transfection efficiency in HEK293 cells (HEK293 cells [2]): 2.7%

CCCCCCCCCCCCCCCNc1nc(NCCCCCCCCCCC)nc(NCCN2CCCCC2)n1 [Compound N11N15D4]
Absolute DNA transfection efficiency in HEK293 cells (HEK293 cells [1]): 0.9% | Absolute mRNA transfection efficiency in HEK293 cells (HEK293 cells [2]): 2.8%

CCCCCCCCCCCCCCCNc1nc(NCCCCCCCCCCC)nc(NCCN2CCN(C)CC2)n1 [Compound N11N15D5]
Absolute DNA transfection efficiency in HEK293 cells (HEK293 cells [1]): 0.2% | Absolute mRNA transfection efficiency in HEK293 cells (HEK293 cells [2]): 0.8%
